Reference: patent US7262173B2, “Chemosensitizing with liposomes containing oligonucleotides” (Georgetown University, priority 1997, dated 2007)

Assays:
SQ-20B tumor cells = experiment: Intracellular stability of antisense raf ODN in DMTAP:PC:CHOL liposomes; type: cell-based, human; settings: 10 μM, 4 hours, 1% serum
Protocol: Stability experiments: SQ-20B tumor cells were incubated with a mixture of radiolabeled-(^32P-γATP) and 10 μM of unlabeled antisense raf oligonucleotide (ATG-AS (SEQ ID NO:1)) either in the liposome encapsulated form (LE-ATG-AS (SEQ ID NO:1)) (FIG. 19, Lane 1) or free form (ATG-AS (SEQ ID NO:1)) (FIG. 19, lane 2). The treatment lasted for 4 hours at 37° C. in 1% serum containing medium. Immediately following incubation, cells were washed with phosphate buffered saline (PBS), detached by trypsinization, and collected by centrifugation. The cell pellet was washed twice with PBS, and cells were then lysed in 10 mM Tris-HCl, 200 mM NaCl, 1% SDS, 200 μg/ml proteinase K, pH 7.4 for 2 hours at 37° C. Oligos were extracted with phenol:chloroform, and aqueous fraction was collected. The samples were normalized for equal radioactivity, and analyzed hy denaturing gel electrophoresis (15% polyacrylamide/7M urea), followed by autoradiography. […]
Stability experiments: SQ-20B tumor cells were incubated with a mixture of radiolabeled (^32P-γATP) and 10 μM of unlabeled antisense raf oligonucleotide (ATG-AS (SEQ ID NO:1)) in the liposome encapsulated form (LE-ATG-AS (SEQ ID NO:1)). […] The samples were normalized for equal radioactivity, and analyzed by denaturing gel electrophoresis (15% polyacrylamide/7M urea), followed by autoradiography. […]

SQ-20B cells = experiment: Radiation survival dose response assay; type: cell-based, human; settings: free ODN 100 μm
Protocol: The appropriate numbers of SQ-20B cells were seeded in duplicate T-25 tissue culture flasks (Corning, N.Y., USA) in medium containing 20% FBS, and allowed to attach for 8 h at 37° C. […] Irradiations were performed using ^137Cs gamma irradiator (JL Shepard MARK I irradiator) and a dose rate of 114 cGy/min. The cells were irradiated with total doses of 1 Gy, 3 Gy, 5 Gy and 13 Gy, followed by incubation for 2 h. The medium in all flasks was then replaced with 20% FBS containing medium and incubations continued for 7–10 days. Surviving colonies were fixed and stained with 0.5% methylene blue and 0.13% carbol fuchsin in methanol. Colonies containing 50 or more cells were scored and data were fitted to the computer-generated single-hit multitarget and linear-quadratic models of radiation survival response.
SQ-20B cells treated with liposome-encapsulated ATG-AS raf ODN (SEQ ID NO:1) are radiosensitive. Radiation survival dose responses of SQ-20B cells exposed to LE-ATG-AS raf ODN (SEQ ID NO:1), LE-ATG-S raf ODN (SEQ ID NO:3), or blank liposomes are presented in Table 1. […] The single-hit, multitarget (target model) and the linear quadratic model (LQ) are most commonly used to analyze cellular radiation survival. The target model is based on the parameters D0 and fl, where D0 is the inverse of the terminal slope of the survival curve and fl is the extrapolation of this slope to the ordinate. […]

5′-GTG-CTCCATTGATGC-3′ (antisense GTGCTCCATTGATGC; DNA, linkages s1 o12 s1 (s phosphorothioate, o phosphodiester), methylation of C not given here) [ATG-AS raf ODN, antisense ODN to translation initiation site of human c-raf-1 cDNA; one terminal base linkage at each end phosphorothioate]
integrity of oligonucleotide in treated cells (SQ-20B tumor cells): degraded form
dose modifying factor (DMF) (SQ-20B cells): approximately 1.4
